Reference: patent US9808470B2, “Estrogenic components for use in the treatment of neurological disorders” (UNIVERSITE DE LIEGE, priority 2012, dated 2017)

Assays:
Assay type in all cases: in vivo
[1] = Ex.2 neonatal HIE rat model, pre-treatment: brain weight; conditions: E4 5 mg/kg ip day 4-7 before HI; day 14; vs vehicle
Procedure: Ischemia was produced by surgery encompassing left common carotid artery double ligation and cut; hypoxia was produced by the inhalation of 11%-8% of oxygen balanced by nitrogen at decreased concentration of oxygen for 20 minutes, followed by inhalation of 8% oxygen and 92% nitrogen at constant concentration for 35 minutes.
Animals were then perfused transcardially with 0.9% saline solution at 4° C., and then with 4% paraformaldehyde in a 0.1-mol/L phosphate-buffered saline solution (pH 7.4) at 4° C. The brains were quickly isolated, weighed and immersed in the same fixative solution at 4° C. for 24 hours, dehydrated with a graded series of ethanol and xylene, and embedded in paraffin.
After delivery, newborn rat pups were assigned to one of the following 4 groups: Sham group, Vehicle group, E4 5 mg/kg/per day group and E4 50 mg/kg/per day group. From day 4 to day 7 inclusive, rat pups were injected intraperitoneally either vehicle (Vehicle group) or E4 (5 mg/kg or 50 mg/kg in accordance to the group assignment) or not injected at all (Sham group). […]

[2] = test system: vascular endothelial growth factor (VEGF); experiment: Ex.3 neuroprotective HIE rat model: VEGF staining
Procedure: The sections were heated in 10 mmol/L citrate buffer (pH 6.0) at 100° C. for 10 minutes. Endogenous peroxidase activity was blocked with 3% hydrogen peroxide for 10 minutes and after a second blocking with 5% normal goat serum, the sections were incubated with anti-doublecortin (DCX) antibody, diluted 1:1000 (rabbit polyclonal antibody; Abcam, Cambridge, UK) and anti-vascular endothelial growth factor (VEGF) antibody, diluted 1:100 (mouse monoclonal antibody; Abcam, Cambridge, UK) overnight at 4° C. After rinsing, Alexa Fluor® goat anti-rabbit, diluted 1:1000 and Alexa Fluor® goat anti-mouse, diluted 1:1000 (Invitrogen Inc., Ghent, Belgium) were added and sections were incubated 1 h at room temperature. Mounting medium containing 4′,6-diamidino-2-phenylindole (DAPI) for fluorescent studies was used (Vector Laboratories). Samples were analyzed with the aid of a microscope (Olympus Vanox AHBT3, Olympus), and the ImageJ software (NIH). The percentage of positively stained cells was quantified as a sum of positively stained either DCX or VEGF cells divided by the total number of DAPI positive cells expressed in percentage.
Newborn rat pups were assigned to one of the following 6 groups from postnatal day 4: Sham group (n=24), Vehicle group (n=14), E4 1 mg/kg/per day group (n=11), E4 5 mg/kg/per day group (n=14), E4 10 mg/kg/per day group (n=14), or E4 50 mg/kg/per day group (n=19). From postnatal day 4, rat pups were intraperitoneally injected either vehicle (Vehicle group) or E4 (1, 5, 10, or 50 mg/kg/per day in accordance to the E4 group assignment) or neither vehicle nor E4 (Sham group). At day 7, 30 minutes after last injection, animals were anesthetized with isoflurane (induction, 3.0%; maintenance, 1.5%), and the rat pups from Vehicle and E4 groups passed through surgery encompassing left common carotid artery double ligation and cut. After the procedure, the pups were returned to their dams and were allowed to recover for 1 hour. The pups were then placed in the humidified hypoxic in vivo cabinet (CoyLab, Grass Lake, Mich., USA). Hypoxia was produced by the inhalation of 11%-8% of oxygen balanced by nitrogen at decreased concentration of oxygen for 20 minutes, followed by inhalation of 8% oxygen and 92% nitrogen at constant concentration for 35 minutes. All the manipulations were performed at 37° C. The Sham group went through similar procedures without left common carotid artery ligation followed by hypoxia nor injection. Rat pups recovered with their dams and reared normally until being sacrificed at postnatal day 14.

[3] = test system: Myelin Basic Protein (MBP); experiment: Ex.7 therapeutic HIE rat model: myelin basic protein staining; conditions: all the E4 treated groups, vs vehicle
Procedure: FIG. 22. Myelin Basic Protein (MBP) staining of brain coronal sections in rat pups that were treated with estetrol. Brains were removed upon sacrifice at postnatal day 14 and paraformaldehyde-fixed and paraffin-embedded brain samples were coronally sectioned at the hippocampus region. The sections were processed for detection of white matter damage through immunohistological staining with anti-MBP antibody. (A-F) MBP staining of brain coronal sections (scale bar: 2 mm) is shown. (G-L) MBP staining of cingulum of the left hemisphere is (scale bar: 2 mm) is shown. (M) The ratio of the MBP positive areas OD ratio was calculated as the MBP positive area OD of the ipsilateral hemisphere divided by the MBP positive area OD of the contralateral hemisphere. 10 samples from each study group were analyzed. The ratio of the MBP positive area OD in the Sham group was considered by default as 1.0.
The sections were processed for immunohistochemical detection of neuronal myelin basic protein disruption. For antigen retrieval, the sections were heated in 10 mmol/L citrate buffer (pH 6.0) at 100° C. for 10 min. […] 10 samples from each study group of both study designs were analyzed with the aid of an image scanner (Nanozoomer Virtual Microscopy, Hamamatsu, Tokyo, Japan) and ImageJ software (NIH, USA). The MBP positive areas optical densities in the ipsilateral and contralateral hemispheres were measured. […]

Which brain weight [1] does the source give for C[C@]12CC[C@@H]3c4ccc(O)cc4CC[C@H]3[C@@H]1[C@@H](O)[C@@H](O)[C@@H]2O [E4, 1,3,5(10)-estratrien-3,15α,16α,17β-tetrol] here?
The brain weight was “significantly higher”.

What about the “percentage of VEGF positively stained cells” value (“percentage” below) ([2]; 1 mg/kg E4 ip PND4-7 before HI, CA2/CA3) of the same molecule?
The value was 34.1±6.855%.

What about the “percentage” value ([2]; 1 mg/kg E4 ip PND4-7 before HI, DG) of the same molecule?
Its value is 43.5±2.083%.

And the “percentage” value ([2]; 5 mg/kg E4 ip PND4-7 before HI, DG)?
Its value is 46.0±4.361%.

What about the “percentage” value ([2]; 10 mg/kg E4 ip PND4-7 before HI, CA1) of the same molecule?
The value was 37.4±7.645%.

What about the “percentage” value ([2]; 10 mg/kg E4 ip PND4-7 before HI, DG) of the same molecule?
Its value is 47.0±5.362%.

And the “percentage” value ([2]; 10 mg/kg E4 ip PND4-7 before HI, cortex)?
Its value is 46.2±7.646%.

What about the “percentage” value ([2]; 50 mg/kg E4 ip PND4-7 before HI, DG) of the same molecule?
Its value is 46.0±4.465%.

What about the “ratio of the MBP-positive area OD” value [3] of the same molecule?
The value was “significantly higher”.
